“And” between values parts separate entries of the source, which are not always exact repeats. Identical values can stand only once.
Assay: Biodistribution of representative compounds (Example 13), % ID/g in tissues of tumor-bearing mice
Assay type: in vivo, mouse
[1] = 30 min, 20 μCi per mouse (SA 6500 mCi/μmol)
[2] = 60 min + Blocker cold FAPI-04 (10 nmole, 6500-fold)
[3] = 60 min, 20 μCi per mouse (SA 6500 mCi/μmol)

## N#C[C@@H]1CCCN1C(=O)CNC(=O)c1ccnc2ccc(OCCCNC(=O)[C@@H](CC(=O)O)NC(=O)[C@@H](CC(=O)O)NC(=O)c3ccc([18F])nc3)cc12 [[^18F]JHU1221785]
[1]
  % ID/g Bladder (individual mouse): 0.93 % ID/g and 4.69 % ID/g
  % ID/g Blood (individual mouse): 5.98 % ID/g and 3.90 % ID/g
  % ID/g Brain (individual mouse): 0.14 % ID/g and 0.15 % ID/g
  % ID/g Fat (individual mouse): 0.21 % ID/g and 0.19 % ID/g
  % ID/g Femur (individual mouse): 2.78 % ID/g and 2.44 % ID/g
  % ID/g Heart (individual mouse): 2.51 % ID/g and 2.01 % ID/g
  % ID/g Kidney (individual mouse): 1.60 % ID/g and 3.33 % ID/g
  % ID/g Large intestine (individual mouse): 0.58 % ID/g and 0.86 % ID/g
  % ID/g Liver (individual mouse): 6.56 % ID/g and 8.08 % ID/g
  % ID/g Lung (individual mouse): 2.77 % ID/g and 2.53 % ID/g
  % ID/g Mean Bladder: 2.81 % ID/g
  % ID/g Mean Blood: 4.94 % ID/g
  % ID/g Mean Brain: 0.14 % ID/g
  % ID/g Mean Fat: 0.20 % ID/g
  % ID/g Mean Femur: 2.61 % ID/g
  % ID/g Mean Heart: 2.26 % ID/g
  % ID/g Mean Kidney: 2.47 % ID/g
  % ID/g Mean Large intestine: 0.72 % ID/g
  % ID/g Mean Liver: 7.32 % ID/g
  % ID/g Mean Lung: 2.65 % ID/g
  % ID/g Mean Muscle: 0.96 % ID/g
  % ID/g Mean Pancreas: 2.31 % ID/g
  % ID/g Mean Salivary gland: 2.93 % ID/g
  % ID/g Mean Small intestine: 2.49 % ID/g
  % ID/g Mean Spleen: 1.00 % ID/g
  % ID/g Mean Stomach: 0.82 % ID/g
  % ID/g Mean Tumor: 1.24 % ID/g
  % ID/g Muscle (individual mouse): 0.81 % ID/g and 1.12 % ID/g
  % ID/g Pancreas (individual mouse): 1.92 % ID/g and 2.71 % ID/g
  % ID/g Salivery gland (individual mouse): 2.81 % ID/g and 3.05 % ID/g
  % ID/g Small intestine (individual mouse): 2.60 % ID/g and 2.38 % ID/g
  % ID/g Spleen (individual mouse): 1.03 % ID/g and 0.97 % ID/g
  % ID/g Stomach (individual mouse): 0.72 % ID/g and 0.92 % ID/g
  % ID/g Tumor (individual mouse): 1.14 % ID/g
[2]
  % ID/g Bladder (individual mouse): 0.23 % ID/g and 0.67 % ID/g
  % ID/g Blood (individual mouse): 0.11 % ID/g and 9.26 % ID/g
  % ID/g Brain (individual mouse): 0.02 % ID/g and 0.04 % ID/g
  % ID/g Fat (individual mouse): 0.03 % ID/g and 0.21 % ID/g
  % ID/g Femur (individual mouse): 1.52 % ID/g and 1.50 % ID/g
  % ID/g Heart (individual mouse): 0.06 % ID/g and 0.07 % ID/g
  % ID/g Kidney (individual mouse): 0.41 % ID/g and 0.51 % ID/g
  % ID/g Large intestine (individual mouse): 0.08 % ID/g and 0.33 % ID/g
  % ID/g Liver (individual mouse): 9.42 % ID/g and 10.36 % ID/g
  % ID/g Lung (individual mouse): 0.13 % ID/g and 0.20 % ID/g
  % ID/g Mean Bladder: 0.43 % ID/g
  % ID/g Mean Blood: 4.68 % ID/g
  % ID/g Mean Brain: 0.03 % ID/g
  % ID/g Mean Fat: 0.12 % ID/g
  % ID/g Mean Femur: 1.51 % ID/g
  % ID/g Mean Heart: 0.07 % ID/g
  % ID/g Mean Kidney: 0.46 % ID/g
  % ID/g Mean Large intestine: 0.20 % ID/g
  % ID/g Mean Liver: 9.69 % ID/g
  % ID/g Mean Lung: 0.17 % ID/g
  % ID/g Mean Muscle: 0.06 % ID/g
  % ID/g Mean Pancreas: 0.13 % ID/g
  % ID/g Mean Salivary gland: 0.05 % ID/g
  % ID/g Mean Small intestine: 3.54 % ID/g
  % ID/g Mean Spleen: 0.16 % ID/g
  % ID/g Mean Stomach: 0.16 % ID/g
  % ID/g Mean Tumor: 0.10 % ID/g
  % ID/g Muscle (individual mouse): 0.04 % ID/g and 0.07 % ID/g
  % ID/g Pancreas (individual mouse): 0.05 % ID/g and 0.22 % ID/g
  % ID/g Salivery gland (individual mouse): 0.04 % ID/g and 0.06 % ID/g
  % ID/g Small intestine (individual mouse): 0.88 % ID/g and 6.19 % ID/g
  % ID/g Spleen (individual mouse): 0.08 % ID/g and 0.25 % ID/g
  % ID/g Stomach (individual mouse): 0.09 % ID/g and 0.23 % ID/g
  % ID/g Tumor (individual mouse): 0.08 % ID/g and 0.11 % ID/g
[3]
  % ID/g Bladder (individual mouse): 0.76 % ID/g and 0.92 % ID/g
  % ID/g Blood (individual mouse): 2.56 % ID/g and 4.57 % ID/g
  % ID/g Brain (individual mouse): 0.09 % ID/g and 0.12 % ID/g
  % ID/g Fat (individual mouse): 0.22 % ID/g and 0.12 % ID/g
  % ID/g Femur (individual mouse): 2.06 % ID/g and 2.07 % ID/g
  % ID/g Heart (individual mouse): 1.38 % ID/g and 1.73 % ID/g
  % ID/g Kidney (individual mouse): 0.79 % ID/g and 1.04 % ID/g
  % ID/g Large intestine (individual mouse): 0.61 % ID/g and 0.78 % ID/g
  % ID/g Liver (individual mouse): 7.41 % ID/g and 8.27 % ID/g
  % ID/g Lung (individual mouse): 1.70 % ID/g and 2.65 % ID/g
  % ID/g Mean Bladder: 0.84 % ID/g
  % ID/g Mean Blood: 3.57 % ID/g
  % ID/g Mean Brain: 0.10 % ID/g
  % ID/g Mean Fat: 0.22 % ID/g
  % ID/g Mean Femur: 2.07 % ID/g
  % ID/g Mean Heart: 1.56 % ID/g
  % ID/g Mean Kidney: 0.91 % ID/g
  % ID/g Mean Large intestine: 0.69 % ID/g
  % ID/g Mean Liver: 7.84 % ID/g
  % ID/g Mean Lung: 2.18 % ID/g
  % ID/g Mean Muscle: 0.98 % ID/g
  % ID/g Mean Pancreas: 2.07 % ID/g
  % ID/g Mean Salivary gland: 3.45 % ID/g
  % ID/g Mean Small intestine: 1.83 % ID/g
  % ID/g Mean Spleen: 0.93 % ID/g
  % ID/g Mean Stomach: 0.71 % ID/g
  % ID/g Mean Tumor: 2.23 % ID/g
  % ID/g Muscle (individual mouse): 1.03 % ID/g and 0.69 % ID/g
  % ID/g Pancreas (individual mouse): 1.96 % ID/g and 2.17 % ID/g
  % ID/g Salivery gland (individual mouse): 2.17 % ID/g and 4.73 % ID/g
  % ID/g Small intestine (individual mouse): 1.65 % ID/g and 2.01 % ID/g
  % ID/g Spleen (individual mouse): 0.78 % ID/g and 1.09 % ID/g
  % ID/g Stomach (individual mouse): 0.60 % ID/g and 0.81 % ID/g
  % ID/g Tumor (individual mouse): 2.99 % ID/g and 1.47 % ID/g
